Assay results: US8563593B2, “Formulations of (R)-1-(2,2-difluorobenzo[D] [1,3] dioxol-5-yl)-N-(1-(2,3-dihydroxypropyl)-6-fluoro-2-(1-hydroxy-2-methylpropan-2-yl)-1H-indol-5-yl)cyclopropanecarboxamide” (Vertex Pharmaceuticals Incorporated, priority 2010, dated 2013)

Assays:
[1] = biological target: T1, ΔF508-CFTR (Homo sapiens, UniProt P13569, DEL508-508); test: Assays for detecting and measuring ΔF508-CFTR correction properties (membrane potential optical assay); assay type: cell-based; details: PercentActivity; NIH3T3 mouse fibroblasts stably expressing ΔF508-CFTR
T1 construct: expressed in transfected cells
T1 sequence (P13569 with tags, fused parts or gaps DEL508-508): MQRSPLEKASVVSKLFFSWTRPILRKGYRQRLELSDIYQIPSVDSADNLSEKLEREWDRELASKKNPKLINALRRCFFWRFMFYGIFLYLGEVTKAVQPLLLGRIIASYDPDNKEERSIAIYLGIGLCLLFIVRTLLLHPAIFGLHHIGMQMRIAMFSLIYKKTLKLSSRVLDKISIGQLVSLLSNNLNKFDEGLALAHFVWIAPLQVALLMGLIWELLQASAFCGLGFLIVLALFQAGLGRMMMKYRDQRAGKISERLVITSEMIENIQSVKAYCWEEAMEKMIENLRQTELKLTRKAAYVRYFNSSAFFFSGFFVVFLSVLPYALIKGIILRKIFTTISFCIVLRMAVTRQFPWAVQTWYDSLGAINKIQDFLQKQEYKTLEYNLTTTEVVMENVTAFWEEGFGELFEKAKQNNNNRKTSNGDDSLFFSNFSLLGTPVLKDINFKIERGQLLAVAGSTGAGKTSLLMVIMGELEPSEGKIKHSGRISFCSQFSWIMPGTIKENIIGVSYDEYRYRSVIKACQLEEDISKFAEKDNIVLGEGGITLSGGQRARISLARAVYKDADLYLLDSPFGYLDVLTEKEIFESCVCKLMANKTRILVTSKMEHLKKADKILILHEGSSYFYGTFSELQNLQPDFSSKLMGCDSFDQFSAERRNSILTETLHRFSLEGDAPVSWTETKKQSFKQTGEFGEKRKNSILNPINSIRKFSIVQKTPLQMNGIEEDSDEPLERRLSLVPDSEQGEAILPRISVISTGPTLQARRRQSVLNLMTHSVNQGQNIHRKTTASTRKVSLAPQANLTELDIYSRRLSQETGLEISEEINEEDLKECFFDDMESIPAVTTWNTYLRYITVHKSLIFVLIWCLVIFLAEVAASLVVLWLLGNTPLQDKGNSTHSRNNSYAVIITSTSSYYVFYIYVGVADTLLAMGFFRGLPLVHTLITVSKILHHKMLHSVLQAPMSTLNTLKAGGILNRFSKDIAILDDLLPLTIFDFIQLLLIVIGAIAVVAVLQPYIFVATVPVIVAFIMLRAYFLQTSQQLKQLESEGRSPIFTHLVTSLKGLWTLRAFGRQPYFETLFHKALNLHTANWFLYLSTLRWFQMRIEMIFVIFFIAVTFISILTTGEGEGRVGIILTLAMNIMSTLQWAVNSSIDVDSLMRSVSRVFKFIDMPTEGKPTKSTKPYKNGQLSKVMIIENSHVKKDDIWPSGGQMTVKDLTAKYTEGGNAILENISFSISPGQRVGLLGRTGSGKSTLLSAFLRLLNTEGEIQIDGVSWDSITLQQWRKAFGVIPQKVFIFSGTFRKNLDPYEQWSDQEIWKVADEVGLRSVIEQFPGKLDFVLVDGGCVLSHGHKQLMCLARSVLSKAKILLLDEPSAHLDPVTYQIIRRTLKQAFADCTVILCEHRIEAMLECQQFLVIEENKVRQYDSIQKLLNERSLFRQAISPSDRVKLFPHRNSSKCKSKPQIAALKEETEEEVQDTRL
Excerpt: Assays for Detecting and Measuring ΔF508-CFTR Correction Properties of Compounds
Membrane Potential Optical Methods for Assaying ΔF508-CFTR Modulation Properties of Compounds
The optical membrane potential assay utilized voltage-sensitive FRET sensors described by Gonzalez and Tsien (See Gonzalez, J. E. and R. Y. Tsien (1995) “Voltage sensing by fluorescence resonance energy transfer in single cells” Biophys J 69(4): 1272-80, and Gonzalez, J. E. and R. Y. Tsien (1997) “Improved indicators of cell membrane potential that use fluorescence resonance energy transfer” Chem Biol 4(4): 269-77) in combination with instrumentation for measuring fluorescence changes such as the Voltage/Ion Probe Reader (VIPR) (See, Gonzalez, J. E., K. Oades, et al. (1999) “Cell-based assays and instrumentation for screening ion-channel targets” Drug Discov Today 4(9): 431-439).
These voltage sensitive assays are based on the change in fluorescence resonant energy transfer (FRET) between the membrane-soluble, voltage-sensitive dye, DiSBAC2(3), and a fluorescent phospholipid, CC2-DMPE, which is attached to the outer leaflet of the plasma membrane and acts as a FRET donor. […] The changes in fluorescence emission were monitored using VIPR™ II, which is an integrated liquid handler and fluorescent detector designed to conduct cell-based screens in 96- or 384-well microtiter plates. […]

[2] = Solubility of Compound 1 with and without PEG cosolvent and vitamin E TPGS; assay type: physicochemical
Excerpt: The PEG cosolvent and vitamin E TPGS induced micelle formation increase Compound 1 solubility from 7 micrograms to several milligrams per g of solution.

CC(C)(CO)c1cc2cc(NC(=O)C3(c4ccc5c(c4)OC(F)(F)O5)CC3)c(F)cc2n1C[C@@H](O)CO [Compound 1, (R)-1-(2,2-difluorobenzo[d][1,3]dioxol-5-yl)-N-(1-(2,3-dihydroxypropyl)-6-fluoro-2-(1-hydroxy-2-methylpropan-2-yl)-1H-indol-5-yl)cyclopropanecarboxamide]
Binned MaxEfficacy [1]: +++ (PercentActivity Bins: + <= 25.0 < ++ <= 100.0 < +++)
Compound 1 solubility ([2]; with PEG cosolvent and vitamin E TPGS induced micelle formation): several
Compound 1 solubility ([2]; without PEG cosolvent and vitamin E TPGS): 7 micrograms per g of solution
